Assay results taken from patent publication US20250034135A1, “ANTI-APOPTOTIC PROTEIN BCL-2 INHIBITOR, PHARMACEUTICAL COMPOSITION AND USES THEREOF” (HANGZHOU HEALZEN THERAPEUTICS CO., LTD., priority 2021, published 2025).

Target: BCL2 (Homo sapiens (Human), UniProt P10415)
Assay: Molecular level activity test of anti-apoptotic protein BCL2 (HTRF, binding to Bim peptide)
Conditions: HTRF, binding of BCL2 to Bim peptide; read-out: BCL2 nM (inhibitory activity, IC50)
Experimental: The detection of the binding ability between anti-apoptotic protein BCL2 and pro-apoptotic protein Bim was performed using Homogeneous Time-Resolved Fluorescence technology. The reaction of this method occurred in a white shallow 384-well plate, with a total reaction volume of 10 μL. Specifically, it included 2 μL of the compound to be tested (2% DMSO), 4 μL His-tagged recombinant protein, and 4 μL Biotin-tagged BIM protein peptide. After 1 hour of reaction, 5 μL of each Anti-His and streptavidin-tagged XL665 antibody diluents diluted with a detection buffer were added. After incubating at room temperature for 4 hours, the values were read using the Envision multifunctional microplate reader to detect the effect of the compound to be tested on the binding ability of BCL2 to Bim protein peptides.

BCL2, sequence (P10415 whole entry): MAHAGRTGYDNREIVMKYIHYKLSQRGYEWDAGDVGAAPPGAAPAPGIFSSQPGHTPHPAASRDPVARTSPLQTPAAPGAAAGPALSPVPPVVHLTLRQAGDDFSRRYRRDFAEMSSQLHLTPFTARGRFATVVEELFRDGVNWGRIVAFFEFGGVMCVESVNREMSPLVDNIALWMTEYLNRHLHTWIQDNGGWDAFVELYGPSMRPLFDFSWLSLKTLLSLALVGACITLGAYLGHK

Compound	IC50
CC(C)c1ccccc1[C@@H]1CN(Cc2ccncc2)CCN1C1CC2(CCN(c3cc(Oc4cnc5[nH]ccc5c4)c(C(=O)NS(=O)(=O)c4ccc(NC[C@H]5CC[C@](C)(O)CC5)c([N+](=O)[O-])c4)cc3F)CC2)C1 [compound 231, 2-((1H-pyrrolo[2,3-b]pyrid-5-yl)oxy)-5-fluoro-N-((4-((((1r, 4r)-4-hydroxy-4-methylcyclohexyl)methyl)amino)-3-nitrophenyl)sulfonyl)-4-(2-((R)-2-(2-isopropylphenyl)-4-(pyrid-4-ylmethyl)piperazin-1-yl)-7-azaspiro[3.5]non-7-yl)benzamide]	< 10 nM
COc1ccc(CN2CCN(C3CC4(CCN(c5cc(Oc6cnc7[nH]ccc7c6)c(C(=O)NS(=O)(=O)c6cc([N+](=O)[O-])c(NCC7(F)CCOCC7)c7[nH]cnc67)cn5)CC4)C3)C(c3ccccc3C(C)C)C2)cc1 (centres unmarked) [compound 077, 4-((1H-pyrrolo[2,3-b]pyrid-5-yl)oxy)-N-((7-(((4-fluorotetrahydro-2H-pyran-4-yl)methyl)amino)-6-nitro-1H-benzo[d]imidazol-4-yl)sulfonyl)-6-(2-(2-(2-isopropylphenyl)-4-(4-methoxybenzyl)piperazin-1-yl)-7-azaspiro[3.5]non-7-yl) nicotinamide]	< 10 nM
COc1ccc(CN2CCN(C3CC4(CCN(c5ccc(C(=O)NS(=O)(=O)c6cc([N+](=O)[O-])c(NCC7(F)CCOCC7)c7[nH]cnc67)c(Oc6cnc7[nH]ccc7c6)c5)CC4)C3)C(c3ccccc3C(C)C)C2)cc1 (centres unmarked) [compound 047, 2-((1H-pyrrolo[2,3-b]pyrid-5-yl)oxy)-N-((7-(((4-fluorotetrahydro-2H-pyran-4-yl)methyl)amino)-6-nitro-1H-benzo[d]imidazol-4-yl)sulfonyl)-4-(2-(2-(2-isopropylphenyl)-4-(4-methoxybenzyl)piperazin-1-yl)-7-azaspiro[3.5]non-7-yl)benzamide]	< 10 nM
COc1ccc(CN2CCN(C3CC4(CCN(c5cc(Oc6cnc7[nH]ccc7c6)c(C(=O)NS(=O)(=O)c6cc([N+](=O)[O-])c(NCC7CCOCC7)c7[nH]cnc67)cc5F)CC4)C3)C(c3ccccc3C(C)C)C2)cc1 (centres unmarked) [compound 076, 2-((1H-pyrrolo[2,3-b]pyrid-5-yl)oxy)-5-fluoro-4-(2-(2-(2-isopropylphenyl)-4-(4-methoxybenzyl)piperazin-1-yl)-7-azaspiro[3.5]non-7-yl)-N-((6-nitro-7-(((tetrahydro-2H-pyran-4-yl)methyl)amino)-1H-benzo[d]imidazol-4-yl)sulfonyl)benzamide]	< 10 nM
COc1ccc(CN2CCN(C3CC4(CCN(c5cc(Oc6cnc7[nH]cc(F)c7c6)c(C(=O)NS(=O)(=O)c6ccc(NCC7(F)CCN(C(C)C)CC7)c([N+](=O)[O-])c6)cn5)CC4)C3)C(c3ccccc3C(C)C)C2)cc1 (centres unmarked) [compound 061, N-((4-(((4-fluoro-1-isopropylpiperid-4-yl)methyl)amino)-3-nitrophenyl)sulfonyl)-4-((3-fluoro-1H-pyrrolo[2,3-b]pyrid-5-yl)oxy)-6-(2-(2-(2-isopropylphenyl)-4-(4-methoxybenzyl)piperazin-1-yl)-7-azaspiro[3.5]non-7-yl) nicotinamide]	< 10 nM

Next, values leading:

IC50	Compound
< 10 nM	CC(C)c1ccccc1[C@@H]1CCCN1C1CC2(CCN(c3ccc(C(=O)NS(=O)(=O)c4cc([N+](=O)[O-])c(NCC5(F)CCOCC5)c5[nH]cnc45)c(N4CCOc5nc6[nH]ccc6cc54)c3)CC2)C1 [compound 087, (S)-2-(2,3-dihydropyrrolo[3′,2′:5,6]pyridino[2,3-b][1,4]oxazin-1 (6H)-yl)-N-((7-(((4-fluorotetrahydro-2H-pyran-4-yl)methyl)amino)-6-nitro-1H-benzo[d]imidazol-4-yl)sulfonyl)-4-(2-(2-(2-isopropylphenyl)pyrrolidin-1-yl)-7-azaspiro[3.5]non-7-yl)benzamide]
< 10 nM	CC(C)c1ccccc1[C@@H]1CCCN1C1CC2(CCN(c3cc(Oc4cnc5[nH]ccc5c4)c(C(=O)NS(=O)(=O)c4cc([N+](=O)[O-])c(NC[C@H]5C[C@@](C)(O)C5)c5[nH]cnc45)cc3F)CC2)C1 [compound 018, 2-((1H-pyrrolo[2,3-b]pyrid-5-yl)oxy)-5-fluoro-N-((7-((((1S,3S)-3-hydroxy-3-methylcyclobutyl)methyl)amino)-6-nitro-1H-benzo[d]imidazol-4-yl)sulfonyl)-4-(2-((S)-2-(2-isopropylphenyl)pyrrolidin-1-yl)-7-azaspiro[3.5]non-7-yl)benzamide]
< 10 nM	COc1ccc(CN2CCN(C3CC4(CCN(c5ccc(C(=O)NS(=O)(=O)c6cc([N+](=O)[O-])c(NC[C@H]7COCCO7)c7c6OCO7)c(Oc6cnc7[nH]ccc7c6)c5)CC4)C3)[C@H](c3ccccc3C(C)C)C2)cc1 [compound 148, N-((7-((((S)-1,4-dioxan-2-yl)methyl)amino)-6-nitrobenzo[d][1,3]dioxocyclopent-4-yl)sulfonyl)-2-((1H-pyrrolo[2,3-b]pyrid-5-yl)oxy)-4-(2-((R)-2-(2-isopropylphenyl)-4-(4-methoxybenzyl)piperazin-1-yl)-7-azaspiro[3.5]non-7-yl)benzamide]
< 10 nM	COc1cc(CN2CCN(C3CC4(CCN(c5cc(Oc6cnc7[nH]ccc7c6)c(C(=O)NS(=O)(=O)c6ccc(NC[C@H]7CC[C@](C)(O)CC7)c([N+](=O)[O-])c6)cc5F)CC4)C3)[C@H](c3ccccc3C(C)C)C2)cc2cc(C)oc12 [compound 225, 2-((1H-pyrrolo[2,3-b]pyrid-5-yl)oxy)-5-fluoro-N-((4-((((1r, 4r)-4-hydroxy-4-methylcyclohexyl)methyl)amino)-3-nitrophenyl)sulfonyl)-4-(2-((R)-2-(2-isopropylphenyl)-4-((7-methoxy-2-methylbenzofuran-5-yl)methyl)piperazin-1-yl)-7-azaspiro[3.5]non-7-yl)benzamide]
< 10 nM	COc1ccc(CN2CCN(C3CC4(CCN(c5cc(Oc6cnc7[nH]ccc7c6)c(C(=O)NS(=O)(=O)c6ccc(NCC7(F)CCOCC7)c([N+](=O)[O-])c6)cc5F)CC4)C3)[C@@H](c3ccccc3C(C)C)C2)cc1 [compound 153, (S)-2-((1H-pyrrolo[2,3-b]pyrid-5-yl)oxy)-5-fluoro-N-((4-(((4-fluorotetrahydro-2H-pyran-4-yl)methyl)amino)-3-nitrophenyl)sulfonyl)-4-(2-(2-(2-isopropylphenyl)-4-(4-methoxybenzyl)piperazin-1-yl)-7-azaspiro[3.5]non-7-yl)benzamide]
< 10 nM	CC(C)c1ccccc1[C@@H]1CCCN1C1CC2(CCN(c3ccc(C(=O)NS(=O)(=O)c4cc([N+](=O)[O-])c(NCC5(F)CCN(C6COC6)CC5)c5[nH]cnc45)c(N4CCOc5nc6[nH]ccc6cc54)c3)CC2)C1 [compound 080, (S)-2-(2,3-dihydropyrrolo[3′,2′:5,6]pyridino[2,3-b][1,4]oxazin-1 (6H)-yl)-N-((7-(((4-fluoro-1-(oxocyclobut-3-yl)piperid-4-yl)methyl)amino)-6-nitro-1H-benzo[d]imidazol-4-yl)sulfonyl)-4-(2-(2-(2-isopropylphenyl)pyrrolidin-1-yl)-7-azaspiro[3.5]non-7-yl)benzamide]
